Measurements from US20240398737A1, “FUNCTIONALIZED LONG-CHAIN HYDROCARBON MONO- AND DI-CARBOXYLIC ACIDS AND DERIVATIVES THEREOF, AND THEIR USE FOR THE PREVENTION OR TREATMENT OF DISEASE” (Espervita Therapeutics, Inc., priority 2021, published 2024).
Entries after “also recorded” stand apart in the source; their conditions may differ.

What was measured:
[1] = system: hepatic de novo lipogenesis; experiment: Hepatic de novo lipogenesis (14C-glucose) in a murine model of NASH; format: in vivo, mouse; conditions: 100 mg/kg as printed in the text (Table 6 prints 60 mg/kg)
Aurora A = Aurora A (Homo sapiens (Human), UniProt O14965); experiment: Wild type kinase screen: Aurora A; format: biochemical; conditions: compound at 10 μM, 10 μM ATP, Data 1 and Data 2 duplicates
Aurora A, sequence (O14965 whole entry): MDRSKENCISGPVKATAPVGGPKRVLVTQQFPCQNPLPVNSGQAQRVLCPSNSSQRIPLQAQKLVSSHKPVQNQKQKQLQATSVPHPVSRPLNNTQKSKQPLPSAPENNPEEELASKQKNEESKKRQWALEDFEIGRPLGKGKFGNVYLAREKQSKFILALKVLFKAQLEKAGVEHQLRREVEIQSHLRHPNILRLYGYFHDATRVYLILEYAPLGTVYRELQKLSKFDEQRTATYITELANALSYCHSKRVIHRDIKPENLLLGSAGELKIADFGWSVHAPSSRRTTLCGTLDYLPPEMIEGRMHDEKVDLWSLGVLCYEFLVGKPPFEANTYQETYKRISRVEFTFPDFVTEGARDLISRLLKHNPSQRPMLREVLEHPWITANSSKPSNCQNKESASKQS

NEK2 = NEK2 (Homo sapiens (Human), UniProt P51955); experiment: Wild type kinase screen: NEK2; format: biochemical; conditions: compound at 10 μM, 10 μM ATP, Data 1 and Data 2 duplicates
NEK2, sequence (P51955 whole entry, species assumed): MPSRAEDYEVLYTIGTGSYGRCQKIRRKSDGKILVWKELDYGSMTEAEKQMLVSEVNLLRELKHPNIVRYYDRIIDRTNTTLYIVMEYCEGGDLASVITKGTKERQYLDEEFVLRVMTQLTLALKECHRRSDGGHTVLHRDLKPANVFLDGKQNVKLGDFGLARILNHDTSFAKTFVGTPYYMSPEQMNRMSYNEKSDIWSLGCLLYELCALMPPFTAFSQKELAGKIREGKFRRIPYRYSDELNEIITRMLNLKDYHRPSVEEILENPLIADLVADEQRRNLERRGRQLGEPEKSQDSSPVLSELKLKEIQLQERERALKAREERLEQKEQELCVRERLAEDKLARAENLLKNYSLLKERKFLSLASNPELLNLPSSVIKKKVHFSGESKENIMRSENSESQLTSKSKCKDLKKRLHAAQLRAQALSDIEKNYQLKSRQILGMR

C57BL6/J mice = experiment: Indirect calorimetry (CLAMS) in fructose-fed C57BL6/J mice; format: in vivo, mouse; conditions: 100 mg/kg oral gavage
Description: Materials and Methods. All experiments were carried out using the methods approved by the Animal Research Ethics Board at McMaster University, Canada (Steinberg Laboratory Animal Utilization Protocol #16-12-42). 8-Week-old male C57BL6/J mice were ordered from Jackson Laboratory, Bar Harbor, Maine and housed at the McMaster University Central Animal Facility. Animals were housed in the ventilated cages racks system and provided with ad libitum access to normal chow diet (Teklad 8640 22/5 rodent diet, procured from Envigo, Mississauga ON) and water supplemented with fructose (30% weight/volume, made fresh weekly) for at least 2-weeks before testing commenced. A 12-hour light/dark cycle and a temperature of 23±2° C. were maintained throughout the animal housing. Data were analyzed using one-way analyses of variance followed by a Tukey's multiple comparisons post hoc test where appropriate. All statistical analysis was carried out using GraphPad Prism 8 software. A p-value of less than or equal 0.05 was considered significant.
Experimental and Results. Respiratory Exchange Ratio (RER) and related metabolic parameters were measured using the Comprehensive Lab Animal Monitoring System (CLAMS, Columbus Instruments, Columbus, Ohio). Animals were placed in CLAMS and allowed ad libitum access to normal chow diet and water supplemented with fructose (30% weight/volume) for at least 24 hours before the experiment began. At 5:30 p.m. chow diet was removed and water containing 30% fructose was replaced with normal tap water. Animals were fasted overnight until food and 30% fructose water were made accessible the next day at 7:30 a.m. (14 hours total). Animals were allowed to feed ad libitum for ˜2 hours. RER was monitored and those animals with RER values >1 were administered either vehicle (1.5% Carboxymethyl cellulose and 0.2% Tween 20) alone or vehicle containing Compound I-1 or Compound I-32 at a dose of 100 mg/kg via oral gavage. Animals remained in the metabolic cages and RER, activity level, locomotor activity, and food intake were monitored for 24 hours. Metabolic parameters were calculated using Oxymax software included with Comprehensive Lab Animal Monitoring System (CLAMS). RER was calculated as the […] given by the following equation: […]
Locomotor activity was calculated as the total number of beam breaks in each cage over a 24-hour period. The heat (calorific value, CV) was calculated by the following equation: […]

GSK3b = GSK3b (Homo sapiens (Human), UniProt P49841); experiment: Wild type kinase screen: GSK3b; format: biochemical; conditions: compound at 10 μM, 10 μM ATP, Data 1 and Data 2 duplicates
GSK3b, sequence (P49841 whole entry, species assumed): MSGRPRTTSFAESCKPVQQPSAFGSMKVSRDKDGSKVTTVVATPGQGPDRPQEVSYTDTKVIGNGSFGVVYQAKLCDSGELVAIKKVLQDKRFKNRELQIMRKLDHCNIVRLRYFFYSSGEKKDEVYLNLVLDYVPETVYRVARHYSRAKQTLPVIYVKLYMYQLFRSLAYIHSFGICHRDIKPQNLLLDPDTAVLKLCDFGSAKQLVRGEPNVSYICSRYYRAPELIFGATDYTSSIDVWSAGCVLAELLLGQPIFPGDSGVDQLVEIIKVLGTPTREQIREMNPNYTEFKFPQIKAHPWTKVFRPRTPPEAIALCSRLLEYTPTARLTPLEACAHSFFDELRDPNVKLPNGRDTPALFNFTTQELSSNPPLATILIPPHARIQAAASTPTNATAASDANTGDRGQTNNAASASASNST

TNIK = TNIK (Homo sapiens (Human), UniProt Q9UKE5); experiment: Wild type kinase screen: TNIK; format: biochemical; conditions: compound at 10 μM, 10 μM ATP, Data 1 and Data 2 duplicates
TNIK, sequence (Q9UKE5 whole entry, species assumed): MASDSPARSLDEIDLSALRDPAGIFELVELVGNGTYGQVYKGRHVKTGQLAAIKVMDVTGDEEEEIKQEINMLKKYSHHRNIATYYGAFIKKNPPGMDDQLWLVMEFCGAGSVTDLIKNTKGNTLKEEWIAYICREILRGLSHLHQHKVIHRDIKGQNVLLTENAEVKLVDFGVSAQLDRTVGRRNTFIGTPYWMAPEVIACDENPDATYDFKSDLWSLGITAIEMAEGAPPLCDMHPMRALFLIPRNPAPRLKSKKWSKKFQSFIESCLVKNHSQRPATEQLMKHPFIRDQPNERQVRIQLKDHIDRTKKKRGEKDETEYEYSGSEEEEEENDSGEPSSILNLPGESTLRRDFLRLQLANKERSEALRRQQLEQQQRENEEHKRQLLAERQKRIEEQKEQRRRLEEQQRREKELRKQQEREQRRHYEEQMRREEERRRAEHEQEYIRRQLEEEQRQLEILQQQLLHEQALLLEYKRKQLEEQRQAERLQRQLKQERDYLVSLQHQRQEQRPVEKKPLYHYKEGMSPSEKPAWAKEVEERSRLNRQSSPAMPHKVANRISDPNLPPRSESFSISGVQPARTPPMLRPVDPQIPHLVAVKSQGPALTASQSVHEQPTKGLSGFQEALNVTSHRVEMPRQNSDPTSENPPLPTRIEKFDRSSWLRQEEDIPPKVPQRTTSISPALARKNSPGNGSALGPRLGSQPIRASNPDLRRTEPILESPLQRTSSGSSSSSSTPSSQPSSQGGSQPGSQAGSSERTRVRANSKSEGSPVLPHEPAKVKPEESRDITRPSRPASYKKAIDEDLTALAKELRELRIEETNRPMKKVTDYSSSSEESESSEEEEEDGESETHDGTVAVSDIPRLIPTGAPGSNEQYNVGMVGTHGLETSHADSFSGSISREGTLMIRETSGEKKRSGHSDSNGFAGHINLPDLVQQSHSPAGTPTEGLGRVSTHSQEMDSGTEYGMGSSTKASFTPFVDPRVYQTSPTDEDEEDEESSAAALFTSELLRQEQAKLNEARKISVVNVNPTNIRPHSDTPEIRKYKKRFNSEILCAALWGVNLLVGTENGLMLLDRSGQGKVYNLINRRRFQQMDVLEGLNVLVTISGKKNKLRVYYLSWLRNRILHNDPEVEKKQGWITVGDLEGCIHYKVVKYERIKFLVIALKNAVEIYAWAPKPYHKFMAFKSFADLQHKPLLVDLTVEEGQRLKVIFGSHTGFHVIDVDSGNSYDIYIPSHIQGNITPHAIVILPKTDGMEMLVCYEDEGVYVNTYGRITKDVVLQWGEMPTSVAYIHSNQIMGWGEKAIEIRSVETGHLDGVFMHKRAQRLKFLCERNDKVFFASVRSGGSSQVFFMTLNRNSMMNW

[2] = system: UUO-induced renal fibrosis; experiment: Murine unilateral ureter obstruction (UUO) renal fibrosis model; format: in vivo, mouse; conditions: 100 mg/kg oral gavage daily for 9 days after UUO, mice
Description: Animal studies were carried out in accordance with the principles of laboratory animal care of the Canadian Council on Animal Care guidelines. Male C57BL/6 mice were obtained from Charles Rivers Laboratories. FIG. 13A summarizes the timeline for this experiment. UUO model was created as follows: male C57BL6J mice (8 weeks old from Charles River Laboratories) were anesthetized with 4% isofluorane and an anesthetic plane was maintained throughout surgery at 1.5-2% isofluorane with 1 L/min oxygen. A 0.5 cm incision was made longitudinally on the left flank. The left ureter and lower pole of the kidney was exposed, and the ureter was ligated with a 6′0 silk suture in close proximity to the renal pelvis. A sham operation control group was created by surgical exposure of the left ureter and lower pole of the kidney followed by closure of the incision. Subcutaneous fluids were given (1.5 ml 0.9% NaCl) and the incision was closed with 4′0 silk sutures followed by staples for the skin. Starting the day of model creation, the animals were given a daily dose of either vehicle alone (sham surgery and UUO control, 1.5% CMC and 0.2% Tween-20) or vehicle containing Compound I-32 or Compound I-1 (at 100 mg/kg) by oral gavage for 9 days following surgery. At the end of the treatment period mice were anesthetized prior to euthanasia by bilateral thoraco-abdominal incision. Blood was collected by cardiac puncture, followed by kidney perfusion with cold saline through left ventricular cannulation. The left kidney was removed, a sample taken and fixed in formalin for histological analysis. Trichrome staining was done on formalin-fixed sections (4 μm) following deparaffinization according to manufacturer's instructions (Sigma HT15-1KT). Images were quantified by measuring the percentage of positive area using Image J on micrographs captured at x200 magnification using the BX41 Olympus microscope. Statistical analysis was performed using GraphPad Prism 8. A one-way ANOVA was used to determine significance. A p-value of less than or equal to 0.05 was used as the criterion of significance. This route was selected because it simulates oral administration to mammalian, including human, subjects and ensures that the correct dose of compound is ingested by each animal.
Immunohistochemistry. Formalin-fixed kidneys were embedded in paraffin, then sectioned at 4 μm. After deparaffinization, they were stained with Masson's trichrome to assess collagen content (Sigma Aldrich, catalogue no. HT15-1T), picrosirius red (PSR) to more specifically assess pathogenic collagens I and III (Polysciences, Inc., catalogue no. 24901-500), αSMA as a marker of activated, profibrotic fibroblasts (PIERCE, catalogue no. MA1-06110; 30 min steaming for antigen retrieval, antibody used at 1:5000 for 2 h at room temperature), CD3 to identify T-lymphocytes (Dako, catalogue no. A0452; 30 min steaming for antigen retrieval, antibody used at 1:500 overnight at 4° C.) and F4/80 to identify macrophages (done by the McMaster Histology Facility). Slides were counterstained with hematoxylin, dehydrated twice with 90% ethanol, cleared twice with xylene, coverslipped with mounting media, and then left to dry overnight before imaging. Masson's trichrome, αSMA, CD3 and F4/80 were imaged under transmitted light and quantified using ImageJ. The Olympus IX81 fluorescence microscope driven by Metamorph was used to image and quantify PSR staining. Images were quantified by measuring the percentage of positive area. All micrographs were captured at x20 magnification.

CAMK2g = CAMK2g (Homo sapiens (Human), UniProt Q13555); experiment: Wild type kinase screen: CAMK2g; format: biochemical; conditions: compound at 10 μM, 10 μM ATP, Data 1 and Data 2 duplicates
c-Kit = c-Kit (Homo sapiens (Human), UniProt P10721); experiment: Wild type kinase screen: c-Kit; format: biochemical; conditions: compound at 10 μM, 10 μM ATP, Data 1 and Data 2 duplicates
c-Kit, sequence (P10721 26-976): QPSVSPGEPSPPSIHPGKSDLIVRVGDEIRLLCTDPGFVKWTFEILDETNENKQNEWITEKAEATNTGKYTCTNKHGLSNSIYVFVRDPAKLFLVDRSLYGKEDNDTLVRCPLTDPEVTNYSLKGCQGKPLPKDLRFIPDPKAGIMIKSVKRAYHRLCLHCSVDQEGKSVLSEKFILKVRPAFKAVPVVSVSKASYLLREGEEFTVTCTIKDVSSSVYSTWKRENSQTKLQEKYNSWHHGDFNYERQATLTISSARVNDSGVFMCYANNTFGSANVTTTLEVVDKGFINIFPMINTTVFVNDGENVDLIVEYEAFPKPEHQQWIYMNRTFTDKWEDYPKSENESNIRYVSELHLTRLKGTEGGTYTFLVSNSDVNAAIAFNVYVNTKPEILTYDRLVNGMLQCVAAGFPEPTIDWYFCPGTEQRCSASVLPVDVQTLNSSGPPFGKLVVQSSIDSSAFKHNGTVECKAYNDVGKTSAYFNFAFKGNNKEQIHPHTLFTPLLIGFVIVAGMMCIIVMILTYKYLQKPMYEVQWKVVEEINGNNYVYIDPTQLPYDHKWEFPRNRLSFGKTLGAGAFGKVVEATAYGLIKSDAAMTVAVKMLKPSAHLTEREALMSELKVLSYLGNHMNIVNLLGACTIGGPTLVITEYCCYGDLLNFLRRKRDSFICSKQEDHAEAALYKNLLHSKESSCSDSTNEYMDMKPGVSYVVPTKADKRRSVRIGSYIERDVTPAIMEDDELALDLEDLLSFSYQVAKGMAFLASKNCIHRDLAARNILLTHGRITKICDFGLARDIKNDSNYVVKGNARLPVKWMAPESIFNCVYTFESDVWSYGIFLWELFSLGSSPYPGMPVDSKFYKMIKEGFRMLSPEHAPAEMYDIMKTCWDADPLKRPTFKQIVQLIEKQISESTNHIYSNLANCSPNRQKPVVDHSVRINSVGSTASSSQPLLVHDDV

Row | SMILES | Inhibition of liver lipogenesis [1] | % Enzyme Activity (relative to DMSO controls) (Aurora A) | % Enzyme Activity (relative to DMSO controls) (NEK2) | Duration of the RER reduction (C57BL6/J mice) | Respiratory exchange ratio (RER) compared to vehicle treated group (C57BL6/J mice) | Time to detection of the RER reduction after treatment (C57BL6/J mice) | % Enzyme Activity (relative to DMSO controls) (GSK3b) | % Enzyme Activity (relative to DMSO controls) (TNIK) | Markers of fibrosis / UUO-induced renal fibrosis [2] | Renal T-lymphocyte infiltration (CD3 stain) [2] | Renal macrophage infiltration (F4/80 stain) [2] | Trichrome staining (kidney fibrosis) [2] | αSMA staining (kidney fibrosis) [2] | % Enzyme Activity (relative to DMSO controls) (CAMK2g) | % Enzyme Activity (relative to DMSO controls) (c-Kit)
1 | CC(C)(CCCCc1ccc(CCCCC(C)(C)C(=O)O)cc1)C(=O)O [Compound I-1, 6-[4-(5-carboxy-5-methylhexyl)-phenyl]-2,2-dimethylhexanoic acid] | 69% | 83.92% | 85.17% | 6 h | significant reduction | ≤ 1 h | 82.73% | 101.58% | attenuated | no effect; also recorded: unaffected | significantly reduced; also recorded: similarly effective in decreasing | decreased | decreased | 57.02% | 81.06%
2 | CC(C)(CCCCc1cccc(CCCCC(C)(C)C(=O)O)c1)C(=O)O [Compound I-32, 6-[3-(5-carboxy-5-methylhexyl)-phenyl]-2,2-dimethylhexanoic acid] | ~50% | 93.33% | 87.7% | 6 h | significant reduction | ≤ 1 h | 72.67% | 99.68% | attenuated | no effect; also recorded: unaffected | significantly reduced; also recorded: similarly effective in decreasing | trend to reduction | trend to reduction | 66.13% | 71.52%
